The values below are quoted from earlier work in patent publication US20100087769A1, “BIOCIDIC MEDICAL DEVICES, IMPLANTS AND WOUND DRESSINGS” (OPLON B.V., priority 2007, published 2010).

Molecules are shown by their SMILES. Entries after “also recorded” stand apart in the source; their conditions may differ. Like-named read-outs stand apart in the source and are kept apart here.

Experiment in series [1]: not given
This is another data set of the same source.

Series [2] concerns aerobic gram-negative bacilli, P. aeruginosa. As to conditions: spectrum as listed in the cell.
Series [3] has as its system other Candida spp. and fungi.
In series [4] the test system is Aspergillus or Fusarium spp. As to conditions: powder, 6 million units/g; four burn patients.
The conditions of series [5]: topical.
For another series, the system named is MRSA. Conditions: topical; 1% silver sulfadiazine, 2% mupirocin, 2% fusidic acid.

As to `NCc1ccc(S(N)(=O)=O)cc1` [Mafenide acetate], the reduction in mortality result (burns of 40 to 79% TBSA) was “greater than 10%”. The effect on mortality entry (patients with smaller or much larger burn injuries) is on record as “only a minimal effect”. In addition, the Major toxicity entry in series [1] (in vivo) was “Metabolic”. The Antibacterial activity result in series [2] is “Broad spectrum against”.
For the compound `C[C@@H]1[C@H](O)[C@@H](C)/C=C/C=C/CC/C=C/C=C/C=C/C=C/C(O[C@H]2O[C@H](C)[C@@H](O)[C@H](N)[C@@H]2O)CC2O[C@](O)(CC(O)C(O)CCC(O)CC(O)CC(O)CC(=O)O[C@H]1C)CC(O)C2C(=O)O` (stereo partly drawn) [Nystatin], in the series with Candida albicans, the concentration that inhibits was 3 µg/mL. Besides, the “concentration needed to inhibit” value in series [3] is 6.25 µg/mL. The “treatment of angioinvasive fungal infections” value in series [4] was “effective”.
Take `O=[N+]([O-])[O-].[Ag+]` [Silver nitrate]: in series [5], the Eschar penetration entry was “None”. Besides, the Major toxicity entry in series [1] (topical) is “Electrolyte”. Further, in series [2], the Antibacterial activity entry is reported as “Bacteriostatic against; also recorded: limited antifungal”.
For `CC(=O)O[C@H]1C[C@@]2(C)[C@@H](C[C@@H](O)[C@H]3[C@@]4(C)CC[C@@H](O)[C@@H](C)[C@@H]4CC[C@@]32C)/C1=C(\CCC=C(C)C)C(=O)O` [fusidic acid], the “reducing local wound bacterial counts and preventing systemic infection” value in the series on MRSA is “equally effective”.
For `C/C(=C\C(=O)OCCCCCCCCC(=O)O)C[C@@H]1OC[C@H](C[C@@H]2O[C@H]2[C@@H](C)[C@H](C)O)[C@@H](O)[C@H]1O` [mupirocin, pseudomonic acid A], in the series with MRSA, the “reducing local wound bacterial counts and preventing systemic infection” value is “equally effective”.
